Test: solubility
Type: physicochemical
Conditions: syrup product of Example 2

Question: Which solubility does the source give for `O=P(O)(O)CC(CO)(CO)CO` [Phosphonic Acid, 3-hydroxy-2,2-bis(hydroxymethyl)propylphosphonic acid] here?
Answer: soluble in water and highly polar organic solvents

From patent US4089893A, “2,2,2-Tris(hydroxymethyl)ethylphosponic acid and method for its preparation” (Borg-Warner Corporation, priority 1976, dated 1978)
